According to patent publication US20240322218A1, “DIAMONDOID SALTS AND RELATED COMPOSITIONS” (Wisconsin Alumni Research Foundation, priority 2021, published 2024):

Legend:
[1] = Cyclic voltammetry, cathodic stability / solvent protection; settings: comparable electrochemical potentials, FIGS. 6 and 7
Text: Included representative data was acquired using a platinum counter electrode, a silver/silver nitrate (Ag/AgNO3) acetonitrile non-aqueous reference electrode, and a variety of working electrodes, which spans a wide-range of standard materials and protocols for electrochemical characterization of ionic liquids and organic plastic crystals. The hardware used was a Biologic potentiostat model SP-300.
A representative procedure using acetonitrile as a solvent and Ag as the working electrode was as follows: • 1. Measure the concentration of water in acetonitrile using Karl Fischer titration. • a. Adjust concentration to ˜1000 ppm water in acetonitrile solvent. • 2. Add diamondoid salt containing electrolyte to make a defined concentration in a 4-dram scintillation vial. • 3. Polish the working electrode using alumina slurry and a polishing pad. • 4. Polish the counter electrode and the Ag wire for the reference electrode. • 5. Clean the electrode surfaces and sonicate for ˜5 seconds. Dry the counter and Ag wire electrode. • 6. Prepare the non-aqueous reference electrode by adding new reference electrolyte consisting of 0.01M AgNO3 and 0.1M tetrabutylammonium tetrafluoroborate (TBA BF4) in acetonitrile. Add the silver wire. • 7. Assemble the electrochemical cell using a custom-printed electrochemical cap by adding the counter, reference, and working electrodes. • 8. […]

[2] = literature (Lassegues et al. 2009); cited from earlier work
[3] = Raman spectroscopy of the TFSI stretching mode; format: physicochemical; settings: for TFSI Raman shift: neat TFSI salt of the cation, 532 nm laser
Text: Raman spectra were taken on a LabRAM HR Evolution Horiba microscope using a 532 nm laser and grating of 1800 gr/mm. All Raman spectra were fitted and processed using Horiba's LabSpec6 software. Samples were sealed in glass slides inside of a nitrogen glove box using paraffin wax before spectra were taken.

[4] = Phase characterization / miscibility with [Li][TFSI] (DSC); format: physicochemical; settings: for eutectic composition / miscibility gap onset (single phase solid to binary phase solid transition): mixtures with [Li][TFSI]
Procedure: The physical properties of the electrolytes, including solubility, thermal stability, phase transition temperatures, viscosity, and density were measured using a combination of accepted characterization techniques, including differential scanning calorimetry (DSC—measurement of phase transition temperatures), thermogravimetric analysis (TGA—measurement of thermal stability), particle-tracking micro-rheology (viscosity), and hydrometer (density). […] Phase transition temperatures, densities, and viscosities were seen to be dependent on the structures of diamondoid salts, as well as presence of additional “dopant” species, such as lithium salts, other diamondoid salts, or solvent molecules. Melting transitions ranged from below room temperature (below: 15° C.) to above 100° C., which spans the entire definition of an “ionic liquid,” range, as well as “organic plastic crystal” electrolyte range.
[Li][TFSI] and organic salt mixtures were melted together under vacuum at 100° C. The melting point of [DiamImMe][TFSI] and [AdImAd][TFSI] exceeded 100° C., so mixtures with those salts were melted and dried at 150° C. Heating was avoided above 150° C. as [Li][TFSI] is reported to undergo an oxidation reaction at temperatures approaching the melting point of pure [Li][TFSI]. After two days, samples were moved to a nitrogen glove box. Water and oxygen levels in the glovebox were monitored to be less than 0.5 ppm.
Differential scanning calorimetry (DSC) was performed using a TA instruments Q100. Samples were sealed in hermetic pans inside of a glovebox. [AdImMe][TFSI], [Me2AdImMe][TFSI], [DiamImMe][TFSI], and [AdImAd][TFSI] samples were equilibrated at −50° C., held at that temperature for three minutes, and then heated to 250° C. at a rate of 2° C. per minute. [C14MIm][TFSI] samples were cooled at a rate of 1° C. per minute to −50° C., held at that temperature for three minutes, and then heated to 250° C. at 2° C. per minute. […] Since no phase change was present, these faster scans were performed to look for the dissolving of [Li][TFSI].

[5] = Static 7Li NMR linewidth (lithium mobility) of mixtures with [Li][TFSI]; format: physicochemical; settings: for Peak Width: static 7Li NMR, 0.1 mole fraction [Li][TFSI] mixtures with the TFSI salt of the cation
Procedure: All NMR measurements were carried out at 11.7 T using a broad band two channel 4 mm standard-bore cross-polarization magic-angle spinning (CP MAS) probe on a Bruker Avance III spectrometer with a proton radio frequency of 500.22 MHz, a ^13C radio frequency of 125.76 MHZ, a ^19F radio frequency 470.66 MHz, and a ^7Li radio frequency 194.40 MHz. The MAS rate was 10 KHz for the CP and ^19F experiments, and static for the ^7Li experiments. 4 mm zirconium rotors with Torlon caps and Viton O-rings were used. Approximately 100 mg of samples was packed into each rotor. All samples were prepared and sealed in a nitrogen glove box. The spinning axis was calibrated to the magic angle using KBr.
^7Li NMR spectra were acquired using […] the same instrumentation used for ^13C NMR. Protocols and pulse sequences were modified to enhance cross-polarization of ^7Li nuclei. Spectra shown represent 16 signal averages with a 0.05 second acquisition time and a 256 second recycle delay between scans. A pulse length of 2 μs was used to maintain a flip angle of less than π/6.
To evaluate the hypothesis that suppression of lithium coordination and incorporation of rigid molecular species can mobilize lithium, solid state NMR spectroscopy of ^7Li was performed to evaluate changes in lithium linewidths as a means of measuring changes in lithium mobility. Static ^7Li NMR spectra indicate the degree of chemical shift anisotropy that the lithium atoms experienced in each salt mixture. […] If the magnetic moment is dependent on the crystallographic orientation, then the lithium is more heavily interacting with the surrounding atoms.

## Cn1cc[n+](C23CC4CC(CC(C4)C2)C3)c1.[Br-]
other
  melting point: 230 to 234.1 °C

## 1-ethyl-3-methylimidazolium bis(trifluoromethylsulfonyl)imide
[1]
  cathodic stability: pronounced cathodic decomposition
[2]
  phase transition via Raman spectroscopy: 0.2 mole fraction [Li][TFSI]

## [Br-].c1c[n+](C23CC4CC(CC(C4)C2)C3)cn1C12CC3CC(CC(C3)C1)C2 [Compound 4, 1,3-bis(adamantan-1-yl)imidazolium bromide]
other
  melting point: 327.5 to 329.9 °C

## Cn1cc[n+](C23CC4C5CC6CC4C(C2)C(C6)C5C3)c1 [Compound 5, 3-(diamantan-4-yl)-1-methylimidazolium bis(trifluoromethane)sulfonimide]
[3]
  TFSI Raman shift: 743 cm⁻¹
[4]; lithium salt in the diamondoid salt
  miscibility with lithium bis(trifluorosulfonyl)imide: up to 50 mol %
[4]
  eutectic composition: ~0.5 mol fraction [Li][TFSI]
  miscibility gap onset (single phase solid to binary phase solid transition): 0.2 mol fraction [Li][TFSI]
[5]
  Peak Width: 1634 Hz

## O=S(=O)([N-]S(=O)(=O)C(F)(F)F)C(F)(F)F.c1c[n+](C23CC4CC(CC(C4)C2)C3)cn1C12CC3CC(CC(C3)C1)C2 [[AdImAd][TFSI]]
[3]
  change of TFSI Raman spectrum in equimolar mixture with [Li][TFSI]: essentially eliminated
  TFSI Raman shift: ca. 740 cm^−1
[3]; listed as AdImAd
  TFSI Raman shift: 740 cm⁻¹
[5]
  Peak Width: 3159 Hz

## C[n+]1ccn(C23CC4CC(CC(C4)C2)C3)c1.O=S(=O)([N-]S(=O)(=O)C(F)(F)F)C(F)(F)F [[AdImMe][TFSI]]
[3]
  change of TFSI Raman spectrum in equimolar mixture with [Li][TFSI]: no statistical change
  TFSI Raman shift: ca. 745 cm^−1
[3]; listed as AdImMe
  TFSI Raman shift: 745 cm⁻¹
[4]
  eutectic composition: ~0.5 mol fraction [Li][TFSI]
  miscibility gap onset (single phase solid to binary phase solid transition): 0.2 mol fraction [Li][TFSI]
[5]; 0.1 mole fraction [Li][TFSI] mixture
  peak thinner than 0.1 mole fraction [Li][TFSI] in N-ethyl-N-methylpyrrolidinium bis(fluorosulfonyl)imide mixture: 10%
[5]
  Peak Width: 454 Hz

## CCCCCCCCCCn1cc[n+](C)c1.O=S(=O)([N-]S(=O)(=O)C(F)(F)F)C(F)(F)F [[C10MIm][TFSI], 1-decyl-3-methylimidazolium TFSI, reference compound]
[3]
  TFSI Raman shift: 742 cm⁻¹
[3]; listed as [C10ImMe][TFSI]
  TFSI Raman shift: ca. 742 cm^−1

## CCCCCCCCCCCCCCn1cc[n+](C)c1.O=S(=O)([N-]S(=O)(=O)C(F)(F)F)C(F)(F)F [[C14MIm][TFSI], 1-tetradecyl-3-methylimidazolium TFSI, reference compound]
[3]
  TFSI Raman shift: 742 cm⁻¹
[3]; listed as [C14ImMe][TFSI]
  TFSI Raman shift: ca. 742 cm^−1

## O=S(=O)([N-]S(=O)(=O)C(F)(F)F)C(F)(F)F.[Li+] [[Li][TFSI], lithium bis(trifluorosulfonyl)imide, reference compound]
[3]
  TFSI Raman shift: ca. 747 cm^−1
[3]; listed as Li
  TFSI Raman shift: 747 cm⁻¹

## C[n+]1ccn(C23CC4CC(C)(CC(C)(C4)C2)C3)c1.O=S(=O)([N-]S(=O)(=O)C(F)(F)F)C(F)(F)F [[Me2AdImMe][TFSI]]
[3]
  TFSI Raman shift: 741 cm⁻¹
